A value given as a limit tells only on which side of the number the result lay.

This experiment addresses HSP90 (Homo sapiens, UniProt P07900). Nature of the experiment: HSP90 inhibition (HSP90 IC50). Format: biochemical.
Turning to `CC(=O)c1ccc(N2[C@@H]3CC[C@H]2C[C@@H](NC(=O)c2ccc(C(N)=O)c(NC4CCOCC4)c2)C3)nc1` [N4-[8-(5-acetylpyridin-2-yl)-8-azabicyclo[3.2.1]oct-3-endo-yl]-2-(tetrahydro-2H-pyran-4-ylamino)benzene-1,4-dicarboxamide], the IC50 was less than 500 nM.
Molecule `CC(=O)c1ccc(N2[C@@H]3CC[C@H]2C[C@@H](NC(=O)c2ccc(C(N)=O)c(NC4CCOC4)c2)C3)nc1` (stereo partly drawn) [N4-[8-(5-acetylpyridin-2-yl)-8-azabicyclo[3.2.1]oct-3-endo-yl]-2-(tetrahydrofuran-3-ylamino)benzene-1,4-dicarboxamide] gave an IC50 of less than 500 nM.
The molecule `CC(=O)c1ccc(N2[C@@H]3CC[C@H]2C[C@@H](NC(=O)c2ccc(C(N)=O)c(NCCOC(C)C)c2)C3)nc1` [N4-[8-(5-acetylpyridin-2-yl)-8-azabicyclo[3.2.1]oct-3-endo-yl]-2-({2-[(1-methylethyl)oxy]ethyl}amino)benzene-1,4-dicarboxamide] returned an IC50 of less than 500 nM.
As to `CC(=O)c1ccc(N2[C@@H]3CC[C@H]2C[C@@H](NC(=O)c2ccc(C(N)=O)c(NCCCNC(C)C)c2)C3)nc1` [N4-[8-(5-acetylpyridin-2-yl)-8-azabicyclo[3.2.1]oct-3-endo-yl]-2-({3-[(1-methylethyl)amino]propyl}amino) benzene-1,4-dicarboxamide], the IC50 lay in the range of 500 to 999 nM.
`COc1ccc(Nc2cc(C(=O)N[C@H]3C[C@H]4CC[C@@H](C3)N4c3ccc(C(C)=O)cn3)ccc2C(N)=O)cc1OCCN1CCOCC1` [N4-[8-(5-acetylpyridin-2-yl)-8-azabicyclo[3.2.1]oct-3-endo-yl]-2-({4-(methyloxy)-3-[(2-morpholin-4-ylethyl)oxy]phenyl}amino)benzene-1,4-dicarboxamide] yielded an IC50 of less than 500 nM.
`CC(=O)c1ccc(N2[C@@H]3CC[C@H]2C[C@@H](NC(=O)c2ccc(C(N)=O)c(NC(C)C(C)(C)C)c2)C3)nc1` (stereo partly drawn) [N4-[8-(5-acetylpyridin-2-yl)-8-azabicyclo[3.2.1]oct-3-endo-yl]-2-[(1,2,2-trimethylpropyl)amino]benzene-1,4-dicarboxamide] returned an IC50 of less than 500 nM.
In turn, `CC(=O)c1ccc(N2[C@@H]3CC[C@H]2C[C@@H](NC(=O)c2ccc(C(N)=O)c(NC(C)C(C)C)c2)C3)nc1` (stereo partly drawn) [N4-[8-(5-acetylpyridin-2-yl)-8-azabicyclo[3.2.1]oct-3-endo-yl]-2-[(1,2-dimethylpropyl)amino]benzene-1,4-dicarboxamide] gave an IC50 of less than 500 nM.
Regarding `CCN1CCC(Nc2cc(C(=O)N[C@H]3C[C@H]4CC[C@@H](C3)N4c3ccc(C(C)=O)cn3)ccc2C(N)=O)CC1` [N4-[8-(5-acetylpyridin-2-yl)-8-azabicyclo[3.2.1]oct-3-endo-yl]-2-[(1-ethylpiperidin-4-yl)amino]benzene-1,4-dicarboxamide], the IC50 was in the range of 500 to 999 nM.
Under `CCC(CC)Nc1cc(C(=O)N[C@H]2C[C@H]3CC[C@@H](C2)N3c2ccc(C(C)=O)cn2)ccc1C(N)=O` [N4-[8-(5-acetylpyridin-2-yl)-8-azabicyclo[3.2.1]oct-3-endo-yl]-2-[(1-ethylpropyl)amino]benzene-1,4-dicarboxamide] stands less than 500 nM.
Molecule `CC(=O)c1ccc(N2[C@@H]3CC[C@H]2C[C@@H](NC(=O)c2ccc(C(N)=O)c(NC(C)C)c2)C3)nc1` [N4-[8-(5-acetylpyridin-2-yl)-8-azabicyclo[3.2.1]oct-3-endo-yl]-2-[(1-methylethyl)amino]benzene-1,4-dicarboxamide] displayed an IC50 of less than 500 nM.
With `CCCC(CCC)Nc1cc(C(=O)N[C@H]2C[C@H]3CC[C@@H](C2)N3c2ccc(C(C)=O)cn2)ccc1C(N)=O` [N4-[8-(5-acetylpyridin-2-yl)-8-azabicyclo[3.2.1]oct-3-endo-yl]-2-[(1-propylbutyl)amino]benzene-1,4-dicarboxamide], the IC50 was less than 500 nM.
The molecule `CC(=O)c1ccc(N2[C@@H]3CC[C@H]2C[C@@H](NC(=O)c2ccc(C(N)=O)c(NCC(F)(F)F)c2)C3)nc1` [N4-[8-(5-acetylpyridin-2-yl)-8-azabicyclo[3.2.1]oct-3-endo-yl]-2-[(2,2,2-trifluoroethyl)amino]benzene-1,4-dicarboxamide] showed an IC50 of less than 500 nM.
For `CC(=O)c1ccc(N2[C@@H]3CC[C@H]2C[C@@H](NC(=O)c2ccc(C(N)=O)c(NCC(F)(F)C(F)(F)F)c2)C3)nc1` [N4-[8-(5-acetylpyridin-2-yl)-8-azabicyclo[3.2.1]oct-3-endo-yl]-2-[(2,2,3,3,3-pentafluoropropyl)amino]benzene-1,4-dicarboxamide], the IC50 is less than 500 nM.
For the molecule `CC(=O)c1ccc(N2[C@@H]3CC[C@H]2C[C@@H](NC(=O)c2ccc(C(N)=O)c(NCC(F)(F)C(F)(F)C(F)(F)F)c2)C3)nc1` [N4-[8-(5-acetylpyridin-2-yl)-8-azabicyclo[3.2.1]oct-3-endo-yl]-2-[(2,2,3,3,4,4,4-heptafluorobutyl)amino]benzene-1,4-dicarboxamide], the IC50 lay in the range of 500 to 999 nM.
`CC(=O)c1ccc(N2C3CCC2CC(NC(=O)c2ccc(C(N)=O)c(NCCN)c2)C3)nc1` (stereo not drawn) [N4-[8-(5-acetylpyridin-2-yl)-8-azabicyclo[3.2.1]oct-3-endo-yl]-2-[(2-aminoethyl)amino]benzene-1,4-dicarboxamide]: the IC50 is less than 500 nM.
As for `CC(=O)c1ccc(N2[C@@H]3CC[C@H]2C[C@@H](NC(=O)c2ccc(C(N)=O)c(NCC(C)C)c2)C3)nc1` [N4-[8-(5-acetylpyridin-2-yl)-8-azabicyclo[3.2.1]oct-3-endo-yl]-2-[(2-methylpropyl)amino]benzefle-1,4-dicarboxamide], the figure is less than 500 nM; as for `CC(=O)c1ccc(N2[C@@H]3CC[C@H]2C[C@@H](NC(=O)c2ccc(C(N)=O)c(NCCC(F)(F)F)c2)C3)nc1` [N4-[8-(5-acetylpyridin-2-yl)-8-azabicyclo[3.2.1]oct-3-endo-yl]-2-[(3,3,3-trifluoropropyl)amino]benzene-1,4-dicarboxamide], less than 500 nM.
`CC(=O)c1ccc(N2[C@@H]3CC[C@H]2C[C@@H](NC(=O)c2ccc(C(N)=O)c(Nc4cccc(OCCN(C)C)c4)c2)C3)nc1` [N4-[8-(5-acetylpyridin-2-yl)-8-azabicyclo[3.2.1]oct-3-endo-yl]-2-[(3-{[2-(dimethylamino)ethyl]oxy}phenyl)amino] benzene-1,4-dicarboxamide] yielded an IC50 of less than 500 nM.
`CC(=O)c1ccc(N2C3CCC2CC(NC(=O)c2ccc(C(N)=O)c(N[C@@H]4CCOC4)c2)C3)nc1` (stereo partly drawn) [N4-[8-(5-acetylpyridin-2-yl)-8-azabicyclo[3.2.1]oct-3-endo-yl]-2-[(3R)-tetrahydrofuran-3-ylamino]benzene-1,4-dioarboxamide] showed an IC50 of less than 500 nM.
Take `CC(=O)c1ccc(N2C3CCC2CC(NC(=O)c2ccc(C(N)=O)c(N[C@H]4CCOC4)c2)C3)nc1` (stereo partly drawn) [N4-[8-(5-acetylpyridin-2-yl)-8-azabicyclo[3.2.1]oct-3-endo-yl]-2-[(3S)-tetrahydrofuran-3-ylamino]benzene-1,4-dicarboxamide]: the IC50 was less than 500 nM.
Under `CC(=O)c1ccc(N2[C@@H]3CC[C@H]2C[C@@H](NC(=O)c2ccc(C(N)=O)c(NCC4CC4)c2)C3)nc1` [N4-[8-(5-acetylpyridin-2-yl)-8-azabicyclo[3.2.1]oct-3-endo-yl]-2-[(cyclopropylmethyl)amino]benzene-1,4-dicarboxamide] stands less than 500 nM; under `CC(=O)c1ccc(N2[C@@H]3CC[C@H]2C[C@@H](NC(=O)c2ccc(C(N)=O)c(NCc4ccccc4)c2)C3)nc1` [N4-[8-(5-acetylpyridin-2-yl)-8-azabicyclo[3.2.1]oct-3-endo-yl]-2-[(phenylmethyl)amino]benzene-1,4-dicarboxamide], 500 to 999 nM.
Take `CC(=O)c1ccc(N2[C@@H]3CC[C@H]2C[C@@H](NC(=O)c2ccc(C(N)=O)c(NCC4CCNC4)c2)C3)nc1` (stereo partly drawn) [N4-[8-(5-acetylpyridin-2-yl)-8-azabicyclo[3.2.1]oct-3-endo-yl]-2-[(pyrrolidin-3-ylmethyl)amino]benzene-1,4-dicarboxamide]: the half-maximal inhibitory concentration (IC50) was less than 500 nM.
As to `CC(=O)c1ccc(N2[C@@H]3CC[C@H]2C[C@@H](NC(=O)c2ccc(C(N)=O)c(NCC4CCCO4)c2)C3)nc1` (stereo partly drawn) [N4-[8-(5-acetylpyridin-2-yl)-8-azabicyclo[3.2.1]oct-3-endo-yl]-2-[(tetrahydrofuran-2-ylmethyl)amino]benzene-1,4-dicarboxamide], the IC50 was less than 500 nM.
For `CC(=O)c1ccc(N2C3CCC2CC(NC(=O)c2ccc(C(N)=O)c(N[C@H]4CC[C@H](O)CC4)c2)C3)nc1` (stereo partly drawn) [N4-[8-(5-acetylpyridin-2-yl)-8-azabicyclo[3.2.1]oct-3-endo-yl]-2-[(trans-4-hydroxycyclohexyl)amino]benzene-1,4-dicarboxamide], the IC50 was less than 500 nM.
Molecule `CC(=O)c1ccc(N2[C@@H]3CC[C@H]2C[C@@H](NC(=O)c2ccc(C(N)=O)c(N)c2)C3)nc1` [N4-[8-(5-acetylpyridin-2-yl)-8-azabicyclo[3.2.1]oct-3-endo-yl]-2-aminobenzene-1,4-dicarboxamide] gave an IC50 of 500 to 999 nM.
On to `CC(=O)c1ccc(N2[C@@H]3CC[C@H]2C[C@@H](NC(=O)c2ccc(C(N)=O)c(N4CCC4)c2)C3)nc1` [N4-[8-(5-acetylpyridin-2-yl)-8-azabicyclo[3.2.1]oct-3-endo-yl]-2-azetidin-1-ylbenzene-1,4-dicarboxamide], for which the IC50 fell in the range of 2000 to 10000 nM.
The molecule `CC(=O)c1ccc(N2[C@@H]3CC[C@H]2C[C@@H](NC(=O)c2ccc(C(N)=O)c(Br)c2)C3)nc1` [N4-[8-(5-acetylpyridin-2-yl)-8-azabicyclo[3.2.1]oct-3-endo-yl]-2-bromobenzene-1,4-dicarboxamide] displayed an IC50 of less than 500 nM.
On to `COc1ccc(Nc2cc(C(=O)N[C@H]3C[C@H]4CC[C@@H](C3)N4c3ccc(C(C)=O)cn3)ccc2C(N)=O)cc1OCCN(C)C` [N4-[8-(5-acetylpyridin-2-yl)-8-azabicyclo[3.2.1]oct-3-endo-yl]-2-{[3-{[2-(dimethylamino)ethyl]oxy}-4-(methyloxy)phenyl]amino}benzene-1,4-dicarboxamide], for which the IC50 was less than 500 nM.
`CC[C@H](C)Nc1cc(C(=O)NC2CC3CCC(C2)N3c2ccc(C(C)=O)cn2)ccc1C(N)=O` (stereo partly drawn) [N4-[8-(5-acetylpyridin-2-yl)-8-azabicyclo[3.2.1]oct-3-endo-yl]-2-{[(1S)-1-methylpropyl]amino}benzene-1,4-dicarboxamide] gave a half-maximal inhibitory concentration (IC50) of less than 500 nM.

For the origin of these results see US8012956B2, “Tropane compounds” (Exelixis, Inc., priority 2007, dated 2011).
